Assay results reported in patent publication US12042476B2, “Methods for the treatment of lysosomal storage diseases” (McMaster University, priority 2022, dated 2024).
Where “and” joins values, the source holds several entries; their conditions need not be identical. Equal entries are not always repeated. Entries after “also recorded” stand apart in the source; their conditions may differ.

How the values were obtained:
Format in all cases: in vivo, mouse
muscle fibers = test: Cross-sectional area of muscle fibers from muscles surrounding the spinal cord; conditions: 4-PBA treated hexb−/− mice, 80 d
Excerpt: (§1) Protocol Two: Two groups of hexb^−/− mice at 40 d of age (n=4 per group) were set. […] Mice were perfused at 80 d, with formalin and processed for immunocytochemistry. Spine sections from treated and untreated mice were immunolabelled with multiple antibodies and evaluated.
Neuromuscular deficits are a highly prevalent consequence of Sandhoff disease. Therefore, cell body sectional area of the anterior horn neurons and the cross-sectional area of muscle fibers from the muscles surrounding the spinal cord of 80 d hexb^+/+ and hexb^−/− mice were evaluated (FIG. 19). Within hexb^+/+ mice, muscle fibres have an average area of ˜1000 um^2 while in contrast hexb^−/− mice show a 44% reduction in area with an average of −570 um^2. Such a drastic reduction early in disease pathology indicates mass muscle atrophy and neuronal loss has already occurred.

[1] = test system: phosphorylated eukaryotic initiation factor 2 alpha (p-eIF2α); test: Immunofluorescence of p-eIF2α and YY1 in spinal cord of hexb−/− mice
Excerpt: as §1
(§2) Spinal cords from hexb^+/+ and hexb^−/− mice were harvested at 40, 60, 80, 100, and 120 d and embedded in paraffin as described above. Samples were rehydrated, first by washing slides with xylene then by washing them with a 1:1 solution of xylene and ethanol (EtOH) followed by washes in 100% EtOH, 95% EtOH, 70% EtOH, 70% EtOH/1% lithium carbonate solution, 70% EtOH, and finally, 50% EtOH. Next, antigen retrieval in a sodium citrate buffer (pH 6) was performed by microwaving the slides at 1 min intervals until boiling and then maintaining a boil for 5 minutes. The slides were then washed with tap water followed by a wash in glycine. […]
(§3) UPR activation was assessed through immunofluorescent staining of phosphorylated eukaryotic initiation factor 2 alpha (p-eIF2α) positive neurons and transcription factor YY1 in spinal cord sections from hexb^−/− mice that were treated or untreated with 4-PBA for (FIG. 15). […] Furthermore, the degree of apoptotic events occurring during disease pathogenesis with and without 4-PBA treatment was evaluated (FIG. 16). […]

[2] = Body mass of hexb−/− mice; conditions: hexb−/− mice with 4-PBA compared to wildtype
Protocol: (§4) Protocol one: Two groups of hexb^−/− mice (n=10 per group); One group was administered 4-PBA (Scandinavian Formulas, Inc.) 4 mg/ml (0.4% w/v) in drinking water at 40 d of age. Body weights and vitals were monitored, and motor neuromuscular function were assessed every other day starting at 50 d of age until end point.
(§5) To assess the efficacy of chemical chaperone 4-PBA in reducing ER stress, hexb^−/− mice were administered 4-PBA in their drinking water at 40 d of age and underwent behavioral testing beginning at 7 weeks of age. Utilizing several behavioral tests such as wire hang, body weight, and righting response, measures of degeneration of cerebellar and motor neuromuscular functions were collected (FIG. 14). […] Lastly, an analysis of survivability was conducted using a Mantel-Cox test (FIG. 14 D). […] Overall, an increase of 16 days was noted, with 127 days as the median survival age for untreated hexb^−/− mice and 143 days for 4-PBA treated hexb^−/− mice.

[3] = test system: ChAT-positive motor neurons (AHNs); test: Immunofluorescence of ChAT and GFAP in anterior horn of spinal cord; conditions: 4-PBA treated hexb−/− mice
Excerpt: as §1
(§6) Spinal cords from hexb^+/+ and hexb^−/− mice were harvested at 40, 60, 80, 100, and 120 d and embedded in paraffin as described above. Samples were rehydrated, first by washing slides with xylene then by washing them with a 1:1 solution of xylene and ethanol (EtOH) followed by washes in 100% EtOH, 95% EtOH, 70% EtOH, 70% EtOH/1% lithium carbonate solution, 70% EtOH, and finally, 50% EtOH. Next, antigen retrieval in a sodium citrate buffer (pH 6) was performed by microwaving the slides at 1 min intervals until boiling and then maintaining a boil for 5 minutes. The slides were then washed with tap water followed by a wash in glycine. Following, the slides were then incubated with bloxall blocking solution for 10 minutes, followed by a 5 minute wash with PBS. Slides were then blocked with 2.5% horse serum for 20 minutes. Samples were then double labelled with a combination of anti-GFAP (1:100, Sigma; G9269), anti-ChAT (1:200, SIGMA), anti-Calretinin (1:200, Proteintech) and anti-NeuN (1:100, novus biologicals; N.BP1-92693). Slides were incubated with antibodies overnight at 4° C. Samples were washed with 1×PBS+0.05% TWEEN20 for 3×5 minutes, prior to application of the secondary antibody. Following, slides were double labeled with appropriate Alexa Fluor secondaries (Invitrogen, goat anti-rabbit 488: A11037, goat anti-mouse 594: A11029) and then again washed with 1×PBS+0.05% TWEEN20. Finally, the slides were mounted with ProLong Diamond antifade mountant reagent with DAPI (Invitrogen: P36966). Samples were imaged using Ziess Axiovert 200 scope equipped with an HBO 100 mercury lamp.
One of the hall marks of motor neurons within the spinal cord is the enzyme choline acetyltransferase (ChAT). […]

hexb^−/− mice [4] = test: Righting reflex / righting response in hexb−/− mice
Protocol: as §4, §5

hexb^−/− mice [5] = test: Wire hang test in hexb−/− mice; conditions: hexb−/− mice treated with 4-PBA vs untreated
Protocol: as §4, §5

[6] = test system: Calretinin-positive interneurons; test: Immunofluorescence of Calretinin in spinal cord sections; conditions: 4-PBA treated hexb−/− mice
Excerpt: as §1
as §6, with “Samples were washed with 1×PBS+0.05% TWEEN20 for 3×5 minutes, prior to application of the secondary antibody. Following, slides were double labeled with appropriate Alexa Fluor secondaries (Invitrogen, goat anti-rabbit 488: A11037, goat anti-mouse 594: A11029) and then again washed with 1×PBS+0.05% TWEEN20. Finally, the slides were mounted with ProLong Diamond antifade mountant reagent with DAPI (Invitrogen: P36966). Samples were imaged using Ziess Axiovert 200 scope equipped with an HBO 100 mercury lamp.” left out

ATF6 = ATF6 expression after 4-PBA treatment
hexb^−/− mice [7] = test: Survival of Sandhoff (hexb−/−) mice given 4-PBA in drinking water, Mantel-Cox analysis
Protocol: Mouse work was conducted under the animal utilization protocol (AUP) in accordance with the Ontario Animals for Research Act specifications and the Animal Research Ethics Board (AREB) guidelines. The Sandhoff model mice (hexb^−/− on a C57BL/6 background) were generously donated by Dr. R. Gravel (University of Calgary, Canada) and have been previously characterized.
as §4, §5

cleaved caspase 7 = test: Immunofluorescence of cleaved caspase 7 and NeuN in spinal cord; conditions: after 4-PBA treatment vs untreated
Excerpt: as §1, §2, §3

O=C(O)CCCc1ccccc1 [4-PBA, 4-phenylbutyric acid]
muscle fiber cross-sectional area vs hexb+/+ (in words) (muscle fibers): no significant difference; also recorded: maintained normal cross section area of muscle fibers
muscle fiber cross-sectional area (average) (muscle fibers; hexb+/+ ~1000, untreated hexb−/− ~570): 900 um^2 and 850 um^2
nuclear localization of p-eIF2α ([1]; hexb−/− mice after 4-PBA treatment vs untreated): increase in the nuclear localization
number of cytosolic p-eIF2α-positive neurons in spinal cord ([1]; hexb−/− mice treated with 4-PBA from 40 d, perfused at 80 d, vs untreated): significant reduction
body mass [2]: restored hexb^−/− mice weights to wildtype levels
C-boutons [3]: more prevalent around AHNs motor neurons and throughout the anterior horn
ChAT staining / ChAT-positive motor neurons in anterior horn [3]: ChAT staining was normalized; also recorded: intense cytosolic ChAT staining within viable AHNs; also recorded: ChAT-positive motor neurons were maintained in anterior horn
GFAP staining in anterior horn [3]: intense GFAP staining
righting reflex / righting response time (hexb^−/− mice [4]; hexb−/− mice treated with 4-PBA vs untreated): significantly faster righting response; also recorded: significantly faster righting reflex
delay in righting response time impairment (hexb^−/− mice [4]; treated vs untreated hexb−/− mice (untreated impaired by 17 weeks of age)): 2 week
wire hang time (hexb^−/− mice [5]): significant increase in wire hang time; also recorded: longer wire hang
Calretinin-positive interneurons within the anterior horn region [6]: very little Calretinin-positive interneurons
ATF6 expression (ATF6): upregulation of ATF6
survival / life span (in words) (hexb^−/− mice [7]; hexb−/− mice with 4-PBA vs without, Mantel-Cox P<0.001): beneficial impact on lifespan; also recorded: significant improvement in motor neuromuscular function and life span; also recorded: lived significantly longer
median survival (hexb^−/− mice [7]; hexb−/− mice, 4-PBA 4 mg/ml (0.4% w/v) in drinking water from 40 d of age, untreated 127 days): 143 days
increase of median survival over untreated hexb−/− mice (hexb^−/− mice [7]; hexb−/− mice, 4-PBA 4 mg/ml in drinking water from 40 d of age): 16 days
number of cCas7 positive neurons in spinal cord (cleaved caspase 7): significant reduction in the number of cCas7 positive neurons; also recorded: suppressed c-Cas7
